Measurements from patent US20210078958A1, “QUINAZOLINE DERIVATIVE AND USE THEREOF” (MEDSHINE DISCOVERY INC., priority 2017, published 2021).

Columns and labels:
HER2 (ErbB2) = HER2 (ErbB2) (Homo sapiens, UniProt P04626); assay: in vitro enzyme activity, HER2 (ErbB2); type: biochemical; details: human ErbB2, [γ-33P]ATP, poly(Glu, Tyr) substrate
Description: (§1) The purpose of this assay is to detect the in vitro inhibitory activity of compounds on HER1 (ErbB1), HER2 (ErbB2), and HER4 (ErbB4). The enzymes used in this assay are human ErbB1, ErbB2 and ErbB4. Eurofins Pharma Discovery Service provided the method for activity detection.
(§2) Steps and Method of the Assay (96-Well Plate):
(§3) A buffer solution of the test compounds in a dilution of 5-fold (5 μL), polypeptide substrate poly(Glu, Tyr) (4:1) (2.5 μL), ErbB (4-20 ng, 2.5 μL), MnCl2 (50 mM, 1.25 μL), dH2O (3.75 μL), and [γ-^33P]ATP (10 μL) were added, and incubated at 30° C. for 10 minutes. The reaction was terminated by adding 3% phosphoric acid. 10 μL of the sample was taken and transferred to Filtermate A. The filter disc was washed 3 times with 75 mM phosphoric acid and once with methanol. The filter disc was transferred to a sealed plastic bag and the scintillation mixture (4 mL) was added. The intensity of the emitted photon was detected by a scintillation luminescence counter. The CPM (times/min) of the enzyme sample was compared with the CPM of the internal control sample. The level of photon intensity reflected the degree of the tyrosine kinase activity.

HER4 (ErbB4) = HER4 (ErbB4) (Homo sapiens, UniProt Q15303); assay: in vitro enzyme activity, HER4 (ErbB4); type: biochemical; details: human ErbB4, [γ-33P]ATP, poly(Glu, Tyr) substrate
HER4 (ErbB4), sequence (Q15303 26-1308): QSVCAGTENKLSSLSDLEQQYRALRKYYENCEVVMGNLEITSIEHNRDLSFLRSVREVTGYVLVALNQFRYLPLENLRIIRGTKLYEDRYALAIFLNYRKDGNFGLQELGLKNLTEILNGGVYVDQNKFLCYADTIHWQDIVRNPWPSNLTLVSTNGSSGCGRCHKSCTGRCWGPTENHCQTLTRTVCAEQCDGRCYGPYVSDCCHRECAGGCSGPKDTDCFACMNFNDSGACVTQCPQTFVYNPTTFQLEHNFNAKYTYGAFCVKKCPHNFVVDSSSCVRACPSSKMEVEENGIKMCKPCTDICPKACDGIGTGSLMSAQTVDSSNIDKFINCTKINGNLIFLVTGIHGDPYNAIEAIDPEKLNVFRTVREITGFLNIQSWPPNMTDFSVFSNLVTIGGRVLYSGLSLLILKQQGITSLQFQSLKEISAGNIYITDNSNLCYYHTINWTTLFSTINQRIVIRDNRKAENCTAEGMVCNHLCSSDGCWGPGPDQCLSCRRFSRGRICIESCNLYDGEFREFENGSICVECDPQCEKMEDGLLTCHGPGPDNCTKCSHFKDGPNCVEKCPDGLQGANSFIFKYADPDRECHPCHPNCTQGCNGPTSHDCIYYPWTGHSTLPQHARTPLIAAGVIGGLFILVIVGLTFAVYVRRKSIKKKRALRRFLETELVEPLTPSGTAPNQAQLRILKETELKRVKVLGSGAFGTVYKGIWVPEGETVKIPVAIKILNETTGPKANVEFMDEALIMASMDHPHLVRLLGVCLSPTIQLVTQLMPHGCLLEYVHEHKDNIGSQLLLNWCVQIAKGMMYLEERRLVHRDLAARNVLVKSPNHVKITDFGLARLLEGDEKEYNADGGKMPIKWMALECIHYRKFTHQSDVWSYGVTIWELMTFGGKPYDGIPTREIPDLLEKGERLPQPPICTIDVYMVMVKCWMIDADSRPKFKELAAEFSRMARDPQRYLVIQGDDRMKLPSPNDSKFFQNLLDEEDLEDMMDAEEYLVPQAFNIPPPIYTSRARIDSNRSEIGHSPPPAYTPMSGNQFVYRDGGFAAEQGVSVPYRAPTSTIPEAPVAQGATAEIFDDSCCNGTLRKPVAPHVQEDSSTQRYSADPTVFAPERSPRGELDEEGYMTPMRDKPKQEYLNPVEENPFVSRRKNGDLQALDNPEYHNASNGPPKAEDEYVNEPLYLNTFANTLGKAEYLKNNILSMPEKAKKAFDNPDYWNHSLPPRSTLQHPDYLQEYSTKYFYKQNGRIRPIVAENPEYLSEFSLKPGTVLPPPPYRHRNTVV
Description: as §1, §2, §3

HER1 (ErbB1) = HER1 (ErbB1) (Homo sapiens, UniProt P00533); assay: in vitro enzyme activity, HER1 (ErbB1); type: biochemical; details: human ErbB1, [γ-33P]ATP, poly(Glu, Tyr) substrate
HER1 (ErbB1), sequence (P00533 25-1210): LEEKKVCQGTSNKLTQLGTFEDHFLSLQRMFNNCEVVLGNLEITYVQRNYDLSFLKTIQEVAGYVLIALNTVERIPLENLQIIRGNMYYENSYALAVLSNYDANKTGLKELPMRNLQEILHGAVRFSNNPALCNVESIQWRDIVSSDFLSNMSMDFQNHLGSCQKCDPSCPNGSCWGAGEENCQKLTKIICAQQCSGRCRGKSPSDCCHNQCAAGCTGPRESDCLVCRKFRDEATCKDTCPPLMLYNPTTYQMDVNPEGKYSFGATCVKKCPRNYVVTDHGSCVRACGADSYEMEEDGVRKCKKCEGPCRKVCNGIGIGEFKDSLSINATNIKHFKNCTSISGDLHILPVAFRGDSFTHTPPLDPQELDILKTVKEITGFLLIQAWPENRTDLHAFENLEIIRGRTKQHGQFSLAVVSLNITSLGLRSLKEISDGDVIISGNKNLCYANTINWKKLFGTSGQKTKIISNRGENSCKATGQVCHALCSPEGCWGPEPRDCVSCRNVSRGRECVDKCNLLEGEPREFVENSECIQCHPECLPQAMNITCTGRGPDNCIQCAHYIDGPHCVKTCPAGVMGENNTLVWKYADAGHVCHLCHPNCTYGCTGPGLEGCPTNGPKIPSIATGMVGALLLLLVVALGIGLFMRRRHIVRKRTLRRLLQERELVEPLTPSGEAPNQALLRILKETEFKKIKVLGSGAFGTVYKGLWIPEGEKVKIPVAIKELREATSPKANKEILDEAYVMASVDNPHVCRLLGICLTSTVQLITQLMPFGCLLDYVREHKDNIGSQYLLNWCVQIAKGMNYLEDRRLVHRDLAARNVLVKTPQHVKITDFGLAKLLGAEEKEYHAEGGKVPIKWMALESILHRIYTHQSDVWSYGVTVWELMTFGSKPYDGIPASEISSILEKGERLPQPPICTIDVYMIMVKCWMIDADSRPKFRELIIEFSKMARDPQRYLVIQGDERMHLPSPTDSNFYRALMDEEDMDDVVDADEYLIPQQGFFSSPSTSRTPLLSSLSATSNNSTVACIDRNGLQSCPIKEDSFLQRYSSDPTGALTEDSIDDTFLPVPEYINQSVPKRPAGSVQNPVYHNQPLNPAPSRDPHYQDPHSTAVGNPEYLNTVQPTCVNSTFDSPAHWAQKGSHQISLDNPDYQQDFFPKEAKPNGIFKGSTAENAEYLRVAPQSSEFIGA
Description: as §1, §2, §3

NCI-N87 cell = assay: inhibitory activity on cell proliferation (Cell-Titer-Glo), NCI-N87; type: cell-based; details: Homo sapiens, NCI-N87, 72 h; incubation for 3 days, Cell-Titer-Glo
Text: Purpose of the assay: to detect the inhibitory activity of the test compounds on cell proliferation.
Principle of the assay: the luciferase in a Cell-Titer-Glo reagent produces oxidized luciferin with luciferin, oxygen and ATP as reaction substrates, and releases energy in the form of light. Since the luciferase reaction requires ATP, the total amount of light generated by the reaction is proportional to the total amount of ATP that reflects cell viability.
Cell Titer-Glo cell viability assay kit with luminescence (Promega #G7573)
According to the schematic diagram of the cell seed plate, cells were seeded in a 384- or 96-well plate at a density of 1000 cells per well and 25 μL per well, and 25 μL of PBS was added to the wells near edge of the place where no cells were seeded.
(1) The stock solution of the compounds has a concentration of 10 mM, and the compounds were diluted with DMSO to an initial concentration of 4 mM. The compounds were added to the plate with stock solution of compounds, 9 μL per well.
(2) The compounds were diluted with an ECHO liquid workstation, where 125 nL of compounds were added to each well of the cell plate, 125 nL of DMSO was added to each of the cell well in columns 2 and 23, and 125 nL of DMSO was added to each PBS well in columns 1 and 24.
2.3 After addition of the compounds, the cell plate was centrifuged at 1000 rpm for 1 min, and then placed in a 37° C., 5% CO2 incubator for incubation for 3 days.
The cell plate was taken out from the incubator and equilibrated at room temperature for 30 minutes. 25 μL of Cell-Titer-Glo reagent was added to each well, shaken for one minute to allow well mixed, and centrifuged at 1000 rpm for 1 minute. After 10 minutes, the plate was read on PerkinElmer Envision, and the […] reading time was set to 0.2 second.

HER2 (ErbB2), sequence (P04626 23-1255): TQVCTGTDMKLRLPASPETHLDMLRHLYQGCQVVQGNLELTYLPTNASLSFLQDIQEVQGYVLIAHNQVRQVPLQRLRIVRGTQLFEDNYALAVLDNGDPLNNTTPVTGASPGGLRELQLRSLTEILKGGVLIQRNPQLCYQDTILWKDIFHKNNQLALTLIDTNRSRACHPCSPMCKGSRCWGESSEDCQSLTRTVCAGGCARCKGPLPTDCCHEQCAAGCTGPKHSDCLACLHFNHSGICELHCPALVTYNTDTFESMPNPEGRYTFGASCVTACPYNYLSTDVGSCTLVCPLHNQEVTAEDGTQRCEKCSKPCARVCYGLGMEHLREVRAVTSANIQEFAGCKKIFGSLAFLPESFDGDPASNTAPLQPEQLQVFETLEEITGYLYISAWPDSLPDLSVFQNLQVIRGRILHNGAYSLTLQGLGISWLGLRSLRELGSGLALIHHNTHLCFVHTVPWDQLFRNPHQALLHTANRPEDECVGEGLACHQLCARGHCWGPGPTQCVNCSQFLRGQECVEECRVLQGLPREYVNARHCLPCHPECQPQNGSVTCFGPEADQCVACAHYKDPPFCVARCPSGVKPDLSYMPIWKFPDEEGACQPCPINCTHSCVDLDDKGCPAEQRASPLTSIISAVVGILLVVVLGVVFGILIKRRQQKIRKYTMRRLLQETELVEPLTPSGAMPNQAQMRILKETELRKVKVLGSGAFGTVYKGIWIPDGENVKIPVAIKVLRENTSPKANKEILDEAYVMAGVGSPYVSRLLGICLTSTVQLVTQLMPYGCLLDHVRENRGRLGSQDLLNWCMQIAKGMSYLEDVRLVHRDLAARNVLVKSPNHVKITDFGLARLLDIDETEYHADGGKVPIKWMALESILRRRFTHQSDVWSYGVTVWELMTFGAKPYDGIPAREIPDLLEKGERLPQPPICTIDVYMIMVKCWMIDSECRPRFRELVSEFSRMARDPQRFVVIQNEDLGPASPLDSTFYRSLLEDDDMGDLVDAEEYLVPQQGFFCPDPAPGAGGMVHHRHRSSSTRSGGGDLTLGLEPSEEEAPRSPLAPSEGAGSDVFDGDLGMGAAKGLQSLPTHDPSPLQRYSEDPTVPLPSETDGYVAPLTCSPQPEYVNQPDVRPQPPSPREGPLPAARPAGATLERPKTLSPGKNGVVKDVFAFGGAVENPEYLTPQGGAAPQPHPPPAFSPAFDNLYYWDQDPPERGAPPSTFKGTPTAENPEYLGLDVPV

Molecule `C=CC(=O)N1C[C@H]2C[C@@H](C1)[C@H]2Oc1cc2c(Nc3ccc(C#N)c(Cl)c3)ncnc2cc1OC` [Example 4] has an IC50 (HER2 (ErbB2)) of 3 nM, an IC50 (HER4 (ErbB4)) of 13 nM and an IC50 (HER1 (ErbB1)) of 2 nM.
Work on `C=CC(=O)N1[C@@H]2CC[C@H]1C[C@H](Oc1cc3c(Nc4ccc(Cl)c(Cl)c4F)ncnc3cc1OCCCN1CCOCC1)C2` [Example 24] yielded an IC50 (HER2 (ErbB2)) of 6 nM, an IC50 (HER4 (ErbB4)) of 3 nM and an IC50 (HER1 (ErbB1)) of 10 nM. The IC50 (NCI-N87 cell) was 0.17 nM.
`C=CC(=O)N1[C@@H]2CC[C@H]1C[C@H](Oc1cc3c(Nc4ccc(Cl)c(Cl)c4F)ncnc3cc1OCC(F)(F)F)C2` [Example 20] showed an IC50 (HER2 (ErbB2)) of 11 nM, an IC50 (HER4 (ErbB4)) of 10 nM and an IC50 (HER1 (ErbB1)) of 18 nM. It also gave an IC50 (NCI-N87 cell) of 0.6 nM.
`C=CC(=O)N1[C@@H]2CC[C@H]1C[C@H](Oc1cc3c(Nc4ccc(Cl)c(Cl)c4)ncnc3cc1OC)C2` [Example 32] was tested, and the IC50 (HER2 (ErbB2)) was 5 nM, the IC50 (HER4 (ErbB4)) was 3 nM and the IC50 (HER1 (ErbB1)) was 15 nM. It also gave an IC50 (NCI-N87 cell) of 0.29 nM.
`C=CC(=O)N1[C@@H]2CC[C@H]1C[C@H](Oc1cc3c(Nc4cccc(Cl)c4F)ncnc3cc1OC)C2` [Example 33] was tested, and the IC50 (HER2 (ErbB2)) was 6 nM, the IC50 (HER4 (ErbB4)) was 3 nM and the IC50 (HER1 (ErbB1)) was 7 nM.
`C=CC(=O)N1C[C@H]2C[C@@H](C1)[C@H]2Oc1cc2c(Nc3ccc(F)c(Cl)c3)ncnc2cc1OC` [Example 3] showed an IC50 (HER2 (ErbB2)) of 5 nM, an IC50 (HER4 (ErbB4)) of 17 nM and an IC50 (HER1 (ErbB1)) of 2 nM.
`C=CC(=O)N1[C@@H]2CC[C@H]1C[C@H](Oc1cc3c(Nc4ccc(F)c(Cl)c4)ncnc3cc1OC)C2` [Example 40] showed an IC50 (HER2 (ErbB2)) of 5 nM, an IC50 (HER4 (ErbB4)) of 2 nM and an IC50 (HER1 (ErbB1)) of 11 nM. The IC50 (NCI-N87 cell) was 0.34 nM.
With `C=CC(=O)N1[C@@H]2CC[C@H]1C[C@H](Oc1cc3c(Nc4ccc(Cl)c(Cl)c4F)ncnc3cc1OCCOC)C2` [Example 22] the IC50 (HER2 (ErbB2)) was 7 nM, the IC50 (HER4 (ErbB4)) was 3 nM and the IC50 (HER1 (ErbB1)) was 12 nM.
`C=CC(=O)N1[C@@H]2CC[C@H]1C[C@H](Oc1cc3c(Nc4ccc(Cl)c(Cl)c4F)ncnc3cc1OCCC(C)(C)O)C2` [Example 45] gave an IC50 (HER2 (ErbB2)) of 7 nM, an IC50 (HER4 (ErbB4)) of 10 nM and an IC50 (HER1 (ErbB1)) of 8 nM. The IC50 (NCI-N87 cell) was 0.69 nM.
`C=CC(=O)N1[C@@H]2CC[C@H]1C[C@H](Oc1cc3c(Nc4ccc(Cl)c(Cl)c4F)ncnc3cc1O[C@@H]1CCOC1)C2` [Example 27] was tested, and the IC50 (HER2 (ErbB2)) was 5 nM, the IC50 (HER4 (ErbB4)) was 3 nM and the IC50 (HER1 (ErbB1)) was 16 nM. The IC50 (NCI-N87 cell) was 0.31 nM.
`C=CC(=O)N1C[C@H]2C[C@@H](C1)[C@H]2Oc1cc2c(Nc3ccc(OC(F)(F)F)c(Cl)c3)ncnc2cc1OC` [Example 6] gave an IC50 (HER2 (ErbB2)) of 4 nM, an IC50 (HER4 (ErbB4)) of 17 nM and an IC50 (HER1 (ErbB1)) of 2 nM.
`C=CC(=O)N1[C@@H]2CC[C@H]1C[C@H](Oc1cc3c(Nc4ccc(Cl)c(Cl)c4F)ncnc3cc1OCCO)C2` [Example 25] gave an IC50 (HER2 (ErbB2)) of 3 nM, an IC50 (HER4 (ErbB4)) of 6 nM and an IC50 (HER1 (ErbB1)) of 6 nM. The IC50 (NCI-N87 cell) was 0.19 nM.
`C=CC(=O)N1C[C@H]2C[C@@H](C1)[C@H]2Oc1cc2c(Nc3cccc(Cl)c3F)ncnc2cc1OC` [Example 5] was tested, and the IC50 (HER2 (ErbB2)) was 24 nM, the IC50 (HER4 (ErbB4)) was 157 nM and the IC50 (HER1 (ErbB1)) was 9 nM.
With `C=CC(=O)N1[C@@H]2CC[C@H]1C[C@H](Oc1cc3c(Nc4ccc(Cl)c(Cl)c4F)ncnc3cc1OCCCO)C2` [Example 44] the IC50 (HER2 (ErbB2)) was 4 nM, the IC50 (HER4 (ErbB4)) was 3 nM and the IC50 (HER1 (ErbB1)) was 5 nM. For the same molecule, the IC50 (NCI-N87 cell) was 0.33 nM.
`C=CC(=O)N1[C@@H]2CC[C@H]1C[C@H](Oc1cc3c(Nc4ccc(Cl)c(Cl)c4F)ncnc3cc1OC1COC1)C2` [Example 42] was tested, and the IC50 (NCI-N87 cell) was 0.92 nM.
`C=CC(=O)N1[C@@H]2CC[C@H]1C[C@H](Oc1cc3c(Nc4ccc(Cl)c(Cl)c4F)ncnc3cc1O[C@H]1CCOC1)C2` [Example 26] showed an IC50 (HER2 (ErbB2)) of 5 nM, an IC50 (HER4 (ErbB4)) of 4 nM and an IC50 (HER1 (ErbB1)) of 8 nM. The IC50 (NCI-N87 cell) was 0.24 nM.
For `C=CC(=O)N1[C@@H]2CC[C@H]1C[C@H](Oc1cc3c(Nc4ccc(Cl)c(Cl)c4F)ncnc3cc1OCC(=O)NC)C2` [Example 23], the IC50 (HER2 (ErbB2)) was 4 nM, the IC50 (HER4 (ErbB4)) was 2 nM and the IC50 (HER1 (ErbB1)) was 8 nM. For the same molecule, the IC50 (NCI-N87 cell) was 0.14 nM.
